We go through ten molecules from patent US20260176289A1, “SMALL MOLECULE INHIBITORS OF KRAS PROTEINS” (Merck Sharp & Dohme LLC, priority 2022, published 2026).

One test concerns the target KRAS-G12D (Homo sapiens, UniProt P01116, G12D). The test can be described thus: SOS-catalyzed nucleotide exchange assay (Procedure A, TR-FRET), KRAS-G12D. It is filed as biochemical. The following applies: nucleotide exchange, read-out: KRAS G12D GNE IC50. The gist of the method:
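Signal ratio (520/495 nm, excitation 340 nm) reports Bodipy-GDP retention on biotinylated RAS after SOS-catalyzed exchange with 3 mM GTP. SOS was 40 nM, except 160 nM for G12V. Room-temperature exchange lasted 60 min (90 min for G12V), following a 60 min compound preincubation.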

For a further test, the target named is KRAS-G13D (Homo sapiens, UniProt P01116, G13D). In words: SOS-catalyzed nucleotide exchange assay (Procedure A, TR-FRET), KRAS-G13D. It is filed as biochemical. The following applies: nucleotide exchange, Procedure A; read-out: KRAS G13D GNE IC50. (In TR-FRET formats the signal depends on donor and acceptor labels being close together.)
Chain of KRAS-G13D (P01116 with tags, fused parts or gaps isoform P01116-2 G13D): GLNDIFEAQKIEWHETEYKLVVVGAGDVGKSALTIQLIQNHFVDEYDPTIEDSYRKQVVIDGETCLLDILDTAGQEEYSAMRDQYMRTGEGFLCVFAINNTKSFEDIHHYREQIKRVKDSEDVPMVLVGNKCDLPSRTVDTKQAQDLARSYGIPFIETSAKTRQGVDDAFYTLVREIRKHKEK
The next test has as its target KRAS-WT (Homo sapiens, UniProt P01116). In words: SOS-catalyzed nucleotide exchange assay (Procedure A, TR-FRET), KRAS-WT. The following applies: nucleotide exchange, read-out: KRAS WT GNE IC50. It is filed as biochemical. The method, boiled down:
(§1)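 Inhibitors stabilizing the Bodipy-GDP state are detected as retained TR-FRET from a preformed biotinylated RAS/Tb-streptavidin complex. They are preincubated 60 min at room temperature, then human SOS and 3 mM GTP are added. G12V runs 90 min at 1.25 nM RAS/160 nM SOS. G12C (3 nM), WT (1 nM) and NRAS (1.25 nM) run 60 min with 40 nM SOS.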

For a further test, the target named is KRAS-G12V (Homo sapiens, UniProt P01116, G12V). In words: SOS-catalyzed nucleotide exchange assay (Procedure A, TR-FRET), KRAS-G12V. The format is biochemical. The following applies: nucleotide exchange, read-out: KRAS G12V GNE IC50. The method, boiled down:
as §1

For test [1], the target named is KRAS-G12C (C51S/C80L/C118S) (Homo sapiens, UniProt P01116, C118S/C51S/C80L/G12C). The test can be described thus: SOS-catalyzed nucleotide exchange assay (Procedure A, TR-FRET), KRAS-G12C. It is filed as biochemical. The following applies: nucleotide exchange, Procedure A; read-out: KRAS G12C GNE IC50. The gist of the method: as §1
Chain of KRAS-G12C (C51S/C80L/C118S) (P01116 with tags, fused parts or gaps isoform P01116-2 G12C/C51S/C80L/C118S): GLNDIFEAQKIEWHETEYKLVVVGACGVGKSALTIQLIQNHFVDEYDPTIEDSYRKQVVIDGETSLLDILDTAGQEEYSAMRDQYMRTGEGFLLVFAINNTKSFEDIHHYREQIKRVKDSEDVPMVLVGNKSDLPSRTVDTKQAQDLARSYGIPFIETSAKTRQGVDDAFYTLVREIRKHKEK
Another test relates to PANC08.13 cells. In words: Cellular phospho-ERK assay, PANC08.13 cells (homozygous KRAS-G12D). The format is cell-based. The following applies: Homo sapiens, read-out: PANC-08.13 pERK IC50. On the procedure:
Procedure for Cellular Phospho-ERK Assay in KRAS Wild Type and Mutant (G12D, G12V) Cell Lines
MKN-1 cells (JCRB JCRB0252) containing amplified wild-type KRAS, were cultured in growth medium that contains RPMI 1640-GlutaMAX™-I (ThermoFisher Scientific 61870) containing 10% heat inactivated fetal bovine serum (ThermoFisher Scientific 10091148), 1 mM sodium pyruvate and 10 mM HEPES. PANC08.13 cells (ATCC® CRL-2551™), containing homozygous KRAS-G12D activating mutation, were cultured in growth medium made of RPMI1640-GlutaMAX™-I (ThermoFisher Scientific 61870) containing 15% heat inactivated fetal bovine serum (ThermoFisher Scientific 10091148)). AsPC-1 cells (ATCC® CRL-1682™), containing homozygous KRAS-G12D activating mutation, were cultured in T150 flask in growth medium (RPMI medium 1640-GlutaMAX™-I (ThermoFisher Scientific 61870) containing 10% fetal bovine serum (ThermoFisher Scientific 10091148)). SW620 cells (ATCC® […]), containing homozygous KRAS-G12V activating mutation, were cultured in growth medium that contains RPMI 1640-GlutaMAX™-I (ThermoFisher Scientific 61870) containing 10% heat inactivated fetal bovine serum (ThermoFisher Scientific 10091148).
Cells for the assay were harvested in growth medium after TrypLE (ThermoFisher scientific 12604021) digestion and were seeded in a 384-well collagen coated cell culture plate (Corning 356702) at a density of 10,000-15,000 cells/20 μL/well, and incubated at 37° C., 5% CO2 overnight. The compound (with 10 mM stock concentration) dose-response titrations were prepared [30 μM final ERK detection assay concentration and 1:3 dilutions, 10-point dose response] and appropriate amounts (270 nL) of test compounds were dispensed in a 384-well intermediate plate using an Echo 550 liquid handler. 30 μL/well of RPMI medium 1640-GlutaMAX™—I was added to the intermediate plate and the contents of the intermediate plate (10 μL/well) were then transferred to the 384-well collagen coated cell culture plate, which was incubated at 37° C., 5% CO2 for 2 hours. After removal of medium from the collagen coated cell culture plate, cells were lysed in lysis buffer from Alpha SureFire® Ultra™ Multiplex p-ERK and total ERK assay kit (PerkinElmer MPSU-PTERK) containing Halt™ Protease and Phosphatase inhibitor cocktail (ThermoFisher Scientific 78446) at room temperature with constant shaking at 300 rpm for 30 minutes. The cell lysates were then transferred to an OptiPlate-384 plate (PerkinElmer 6005620), and the phosphorylation of ERK (p-ERK) and total ERK levels were detected by Alpha SureFire® Ultra™ Multiplex p-EEK kit and total ERK assay kit (PerkinElmer MPSU-PTERK) following the manufacturer's protocol. Assay plates were read on a En Vision Multimode Plate Reader (PerkinElmer), and the ratio of p-ERK vs. total ERK in each well was used as the final readout. Dose response curves were analyzed using a 4-parameter logistic model to calculate IC50 values using Spotfire software.

The next test deals with AsPC-1 cells. The test can be described thus: Cellular phospho-ERK assay, AsPC-1 cells (homozygous KRAS-G12D). The following applies: Homo sapiens, ASPC1, 2 h, read-out: AsPC1 pERK IC50. It is filed as cell-based. The method, boiled down: (§2)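 Overnight-plated cells on collagen received test compound (up to 30 μM final, threefold steps, ten concentrations) for two hours. After lysis at room temperature, phosphorylated and total ERK were quantified together by Alpha SureFire, and IC50 is based on the phospho-to-total signal ratio.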

For a further test, the system named is MKN-1 cells. The test can be described thus: Cellular phospho-ERK assay, MKN-1 cells (amplified wild-type KRAS). The format is cell-based. The following applies: Homo sapiens, read-out: MKN1 pERK IC50. The gist of the method:
as §2

The subject of another test is SW620 cells. The test can be described thus: Cellular phospho-ERK assay, SW620 cells (homozygous KRAS-G12V). It is filed as cell-based. The following applies: Homo sapiens, read-out: SW620 pERK IC50. The method, boiled down:
as §2

SMILES strings stand for the structures. Like-named read-outs stand apart in the source and are kept apart here.

Chain of KRAS-G12V (P01116 with tags, fused parts or gaps isoform P01116-2 G12V): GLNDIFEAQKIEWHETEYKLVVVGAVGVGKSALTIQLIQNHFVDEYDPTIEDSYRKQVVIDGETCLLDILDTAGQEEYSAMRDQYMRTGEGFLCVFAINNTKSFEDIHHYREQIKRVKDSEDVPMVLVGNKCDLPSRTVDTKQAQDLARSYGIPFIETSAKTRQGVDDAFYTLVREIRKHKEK
Chain of KRAS-G12D (P01116 with tags, fused parts or gaps isoform P01116-2 G12D): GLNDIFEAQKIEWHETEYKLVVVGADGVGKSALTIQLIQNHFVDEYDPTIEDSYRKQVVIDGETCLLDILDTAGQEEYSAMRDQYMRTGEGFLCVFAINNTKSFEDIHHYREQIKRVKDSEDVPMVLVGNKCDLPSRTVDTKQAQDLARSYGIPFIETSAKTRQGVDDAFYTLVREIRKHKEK
Chain of KRAS-WT (P01116 with tags, fused parts or gaps isoform P01116-2): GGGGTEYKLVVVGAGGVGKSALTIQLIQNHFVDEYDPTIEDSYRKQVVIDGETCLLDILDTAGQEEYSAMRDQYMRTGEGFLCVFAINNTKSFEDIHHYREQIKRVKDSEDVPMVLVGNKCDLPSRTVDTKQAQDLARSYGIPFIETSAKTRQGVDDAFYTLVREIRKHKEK

`CCc1c(C)cc2[nH]ncc2c1-c1nccc2c1sc1nc(OC[C@@]34CCCN3C[C@H](F)C4)nc(N3CCOC[C@@](C)(O)C3)c12` [Ex-36, (6S)-4-(8-(5-ethyl-6-methyl-1H-indazol-4-yl)-2-(((2R,7aS)-2-fluorotetrahydro-1H-pyrrolizin-7a(5H)-yl)methoxy)pyrido[4′,3′:4,5]thieno[2,3-d]pyrimidin-4-yl)-6-methyl-1,4-oxazepan-6-ol]: the IC50 (usually the concentration at which inhibition is half-maximal) on KRAS-G12D was 164 nM; at KRAS-G13D it was 150 nM; at KRAS-WT it was 330 nM; at KRAS-G12V it was 533 nM; in test [1], 125 nM; in the test with PANC08.13 cells (PANC-08-13, KRAS-G12D, 2 hours) it was 268 nM.

In the case of `Cc1cc2[nH]ncc2c(-c2cncc3c2sc2nc(OC[C@@]45CCCN4C[C@H](F)C5)nc(N4CCOC[C@@](C)(O)C4)c23)c1C(F)(F)F` [Ex-273, (6S)-4-(2-(((2R,7aS)-2-fluorotetrahydro-1H-pyrrolizin-7a(5H)-yl)methoxy)-8-(6-methyl-5-(trifluoromethyl)-1H-indazol-4-yl)pyrido[3′,4′:4,5]thieno[2,3-d]pyrimidin-4-yl)-6-methyl-1,4-oxazepan-6-ol], the IC50 on KRAS-G12D turned out to be 360 nM; at KRAS-G13D, 1100 nM; at KRAS-WT, 1230 nM; on KRAS-G12V, 574 nM; in test [1] it was 456 nM; in the test on PANC08.13 cells (PANC-08-13, KRAS-G12D, 2 hours) it was 562 nM.

With `Cc1cc2[nH]ncc2c(-c2nccc3c4c(N5CCOCC(O)C5)nc(OC[C@@]56CCCN5C[C@H](F)C6)nc4n(C)c23)c1C(F)(F)F` (single isomer, unassigned) [Ex-23], the IC50 at KRAS-G12D was 1430 nM; at KRAS-G13D, 789 nM; on KRAS-WT it was 1200 nM; on KRAS-G12V, 657 nM; in [1] it was 190 nM; in the test on PANC08.13 cells (PANC-08-13, KRAS-G12D, 2 hours) it was 3060 nM.

With `Cc1cc2c3c(N4CCOC[C@@](C)(O)C4)nc(OC[C@@]45CCCN4C[C@H](F)C5)nc3n(C)c2c(-c2c(C(F)(F)F)c(C)cc3[nH]ncc23)n1` (single isomer, unassigned) [Ex-28], the IC50 on KRAS-G12D came to 629 nM; at KRAS-G13D, 541 nM; on KRAS-WT it was 973 nM; on KRAS-G12V, 934 nM; in [1], 275 nM; in the test with PANC08.13 cells (PANC-08-13, KRAS-G12D, 2 hours) it was 2040 nM.

For the molecule `Cc1cc2[nH]ncc2c(-c2nccc3c2sc2nc(OC[C@@]45CCCN4C[C@H](F)C5)nc(N4CCOC(CO)C4)c23)c1C(F)(F)F` (stereo partly drawn) [Ex-180, (4-(2-(((2R,7aS)-2-fluoro-tetrahydro-1H-pyrrolizin-7a(5H)-yl)methoxy)-8-(6-methyl-5-(trifluorometh-yl)-1H-indazol-4-yl)pyrido [4′,3′:4,5]thieno[2,3-d]pyr-imidin-4-yl)morpholin-2-yl)methanol], the IC50 on KRAS-G12D came out at 2270 nM; on KRAS-G13D it was 813 nM; on KRAS-WT, 725 nM; on KRAS-G12V, 428 nM; in test [1] it was 78 nM; in the test with PANC08.13 cells (PANC-08-13, 2 hours compound incubation), 3930 nM.

In the case of `C#Cc1c(F)ccc2cc(N)nc(-c3nccc4c5c(N6CCOC[C@@](C)(O)C6)nc(OC[C@@]67CCCN6C[C@H](F)C7)nc5n(C)c34)c12` [Ex-17, (S)-4-(8-(3-amino-8-ethynyl-7-fluoroisoquinolin-1-yl)-2-(((2R,7aS)-2-fluorotetrahydro-1H-pyrrolizin-7a(5H)-yl)methoxy)-9-methyl-9H-pyrido[4′,3′:4,5]pyrrolo[2,3-d]pyrimidin-4-yl)-6-methyl-1,4-oxazepan-6-ol], the IC50 at KRAS-G12D turned out to be 1420 nM; on KRAS-G13D, 592 nM; at KRAS-WT it was 1810 nM; at KRAS-G12V, 1020 nM; in test [1], 300 nM; in the test on PANC08.13 cells (PANC-08-13, KRAS-G12D, 2 hours), 3750 nM.

For the molecule `Cc1cc(-c2nccc3c2sc2nc(OC[C@@]45CCCN4C[C@H](F)C5)nc(N4CCOC[C@@](C)(O)C4)c23)c2cn[nH]c2c1` [Ex-37, (S)-4-(2-(((2R,7aS)-2-fluorotetrahydro-1H-pyrrolizin-7a(5H)-yl)methoxy)-8-(6-methyl-1H-indazol-4-yl)pyrido[4′,3′:4,5]thieno[2,3-d]pyrimidin-4-yl)-6-methyl-1,4-oxazepan-6-ol], the IC50 on KRAS-G12D came out at 1450 nM; at KRAS-G13D it was 2450 nM; at KRAS-WT, 3070 nM; on KRAS-G12V it was 1490 nM; in test [1], 1480 nM; in the test with PANC08.13 cells (PANC-08-13, KRAS-G12D, 2 hours), 1800 nM.

Regarding `Cc1cc2[nH]ncc2c(-c2nccc3c4c(N5CCCC6(CC(=O)N6)C5)nc(OC[C@@]56CCCN5C[C@H](F)C6)nc4n(C)c23)c1C(F)(F)F` (single isomer, unassigned) [Ex-21], the IC50 on KRAS-G12D was 59 nM; in the test on AsPC-1 cells (KRAS-G12D, 2 hours), 3260 nM; on KRAS-WT, 455 nM; on KRAS-G12V, 34.4 nM; in test [1] it was 25.3 nM; in the test with PANC08.13 cells (PANC-08-13, KRAS-G12D, 2 hours), 1860 nM.

Turning to `Cc1cc2[nH]ncc2c(-c2nccc3c4c(N5CCOC[C@@](C)(O)C5)nc(OC[C@]5(CN(C)C)CC5(F)F)nc4n(C)c23)c1C(F)(F)F` [Ex-20, (6S)-4-(2-(((R)-1-((dimethylamino)methyl)-2,2-difluorocyclopropyl)methoxy)-9-methyl-8-(6-methyl-5-(trifluoromethyl)-1H-indazol-4-yl)-9H-pyrido[4′,3′:4,5]pyrrolo[2,3-d]pyrimidin-4-yl)-6-methyl-1,4-oxazepan-6-ol], the IC50 was determined as 37.9 nM on KRAS-G12D; 150 nM in the test with MKN-1 cells (amplified wild-type KRAS, 2 hours); 125 nM at KRAS-WT; 62.9 nM at KRAS-G12V; 80.6 nM in the test on PANC08.13 cells (PANC-08-13, KRAS-G12D, 2 hours); 539 nM in the test with SW620 cells (SW-620, KRAS-G12V, 2 hours).

Regarding `C#Cc1cc(F)cc2cc3[nH]ncc3c(-c3nccc4c3sc3nc(OC[C@@]56CCCN5C[C@H](F)C6)nc(N5CCOC[C@@](C)(O)C5)c34)c12` [Ex-165], the IC50 came to 6.79 nM at KRAS-G12D; 41.5 nM in the test with MKN-1 cells (2 hours compound incubation); 14.1 nM on KRAS-G13D; 40.7 nM in the test on AsPC-1 cells (2 hours compound incubation); 18.6 nM on KRAS-WT; 11 nM on KRAS-G12V. For the same molecule, the IC50 in [1] came out at 21.7 nM; with SW620 cells (SW-620, 2 hours compound incubation), 31.2 nM.
